These results are taken from US20030148963A1 (priority 2000, published 2003).

Each structure is given as a SMILES string. Marks after values point to notes of the source that are not given here.

For test [1], the system named is MIP-1α. Briefly: MIP-1α release by IC-21 macrophage cell line. It counts as cell-based, murine. As for the experimental part:
(§1) Levels of TNF, IL-1b, RANTES, and macrophage inflammatory protein (MIP)-1α were determined using sandwich ELISA from R&D Systems (Minneapolis, Minn.).
(§2) These cells display many typical features of the macrophage phenotype and are therefore a suitable model for studying cytoline and chemokine release during inflammation (16). The cells were maintained in continous culture using RPMI-1640 supplemented with 10% FCS, L-glutamine, and gentamycin. When the cells had grown to about 70% confluency, they were seeded into a 24-well-plate (Nunc) at a concentration of 1×10^5 per well and incubated at 37° C. in 5% CO2 for 24 h. […] After 24 h of incubation, the cells were washed once with PBS, and reincubated with medium containing different concentrations (1, 10, 100, 1000 ng/ml) of LPS (Difco) and IFN-γ (10, 50, 100 u/nml). The interferon-γ was purified from the supernatants from Chinese hanater ovary (CHO) cells transfected with the murine IFN-γ gene (hybridoma kindly provided by Dr. Morris, Department of Biological Sciences, University of Warwick, Coventry, UK). After 2 and 24 h of incubation the supernatants were collected and stored at −20° C. until analysis.

The subject of test [2] is MIP-1α. Put plainly: Serum MIP-1α in CII immunized mice (ELISA). It counts as in vivo, B10.QxDBA/1 female mice. The settings on record: serum at end of experiment, mean ± SEM. As for the experimental part:
as §1
On the technique in general: In an ELISA, binding on a coated surface is turned into a signal by an enzyme label.

Test [3] has as its system peripheral blood leukocytes. Put plainly: Hematological analyses during S. aureus infection. It counts as in vivo, NMRI mice. The procedure: Hematological Analyses Mice were bled from the tail into heparinized tubes on days −3, −1, 3, and 6-7 after bacterial inoculation. The leukocytes were counted in a hemacytometer (Toa Medical Electronics, Kobe, Japan). Fifty microliters of the heparinized blood was analysed in a FACScan cytometer (Becton Dickinson, San Jose, Calif.) to determine the percentages of lymphocytes, granulocytes, and monocytes, respectively. The absolute numbers of different leukocyte subsets were then calculated from the total leukocyte counts.

Test [4] has as its system RANTES. Briefly: RANTES release by IC-21 macrophage cell line. It counts as cell-based, murine. To be noted: data not shown. The procedure:
as §1, §2

Test [5] has as its system spleen mononuclear cells. It counts as cell-based, NMRI mice. The settings on record: spleen cells from naive mice, etoposide 1, 10, 100 μM; FIG. 2.
Test [6] concerns IL-6. Briefly: Serum IL-6 in S. aureus infected mice (B9 bioassay). It counts as in vivo, NMRI mice. The settings on record: six days after 1.4×10^7 CFU S. aureus; 12.5 mg/kg from three days prior; mean ± SEM, n = 6. The procedure:
The cell line B 13,29, subclone B9, which is dependent on IL-6 for its growth, was used for IL-6 determinations. The cells were seeded into microtiter plates at a concentration of 5000 cells/well and samples in different dilutions were added. One μCi of (3H) TdR (Amersham) was added after 68 h of culture, and the cells were harvested 4 h later. The results were compared with recombinant IL-6 standard (Genzyme, Cambridge, Mass.). The B9 cells were previously shown not to react with several recombinant cytolines including IL.-1, IL.-, L-2, IL-3, IL-5, granulocyte/macrophage CS17, TNF.-, and IFN.-, There was only a weak reactivity with IL-4 [14].

Test [7] has as its system TNF-α. It counts as cell-based. To be noted: spleen cells of mice given 12.5 mg/kg 4 days a week for 4 weeks; mean ± SEM, 4 mice.

On to `COc1cc([C@@H]2c3cc4c(cc3[C@@H](O[C@@H]3O[C@@H]5CO[C@@H](C)O[C@H]5[C@H](O)[C@H]3O)[C@H]3COC(=O)[C@H]23)OCO4)cc(OC)c1O` [Etoposide], for which the “Levels of MIP-1α in supernatants” value came out at 5700 pg/mL in test [1] (etoposide 0.01 μM 24 h, then IFN-γ 0 u/ml 24 h); 4200 pg/mL in test [1] (etoposide 0.01 μM 24 h, then IFN-γ 10 u/ml 24 h); 1075 pg/mL in test [1] (etoposide 0.01 μM 24 h, then IFN-γ 50 u/ml 24 h); 800 pg/mL in test [1] (etoposide 0.01 μM 24 h, then IFN-γ 100 u/ml 24 h); 3400 pg/mL in test [1] (etoposide 0.1 μM 24 h, then IFN-γ 0 u/ml 24 h); 1950 pg/mL in test [1] (etoposide 0.1 μM 24 h, then IFN-γ 10 u/ml 24 h). Also, the “Levels of MIP-1α in supernatants” value was 900 pg/mL in test [1] (etoposide 0.1 μM 24 h, then IFN-γ 50 u/ml 24 h) and 488 pg/mL in test [1] (etoposide 0.1 μM 24 h, then IFN-γ 100 u/ml 24 h). Further, the MIP-1a is on record as 3.0 ± 0.5^c pg/ml in test [2] (Etoposide-pretreated) and 2.9 ± 0.3^c pg/ml in test [2] (Etoposide-treated (from day 40)). Further, the figures for the Numbers of lymphocytes in test [3] (day prior to bacterial inoculation) and in test [3] (seven days after infection) were 5.6±0.4 ×10^6/ml and 0.8±0.2 ×10^6/ml, respectively. In addition, the Numbers of granulocytes in test [3] (day −1) is 1.3±0.2 ×10^6/ml; in test [3] (seven days after the inoculation), 1.6±0.4 ×10^6/ml. The “Levels of circulating monocytes” value in test [3] (etoposide from three days prior to S. aureus inoculation, FIG. 4) was “significantly decreased”. Further, the RANTES release result in test [4] was “upregulated”. Besides, the “Proliferative responses to Con A and TSST-1” value in test [5] is reported as “significantly decreased upon increasing concentrations”. Moreover, the “Serum IL-6” value in test [6] is recorded as 11.927 ± 4.610^b pg/ml. Moreover, in test [7], the “TNF-α, Con A” value was 6 ± 0.5^a) pg/ml. In addition, in test [7], the “TNF-α, TSST-1” value is on record as 6 ± 0.4^a) pg/ml.
